Experiments:
Type in all cases: toxicity, cell-based
Fibroblast = assay: Incucyte cell viability with human fibroblast; details: 10 µM, compound concentration 10 uM
HEK-293T = assay: Incucyte cell viability with HEK293T; details: human, 10 µM, compound concentration 10 uM
U2OS = assay: Incucyte cell viability with U2OS; details: human, 10 µM, compound concentration 10 uM
[1] = 0 h, replicate number 1, timepoint 0 hours
[2] = 6 h, replicate number 1, timepoint 6 hours
[3] = 12 h, replicate number 1, timepoint 12 hours
[4] = 18 h, replicate number 1, timepoint 18 hours
[5] = 18 h, replicate number 2, timepoint 18 hours
[6] = 24 h, replicate number 1, timepoint 24 hours
[7] = 6 h, replicate number 2, timepoint 6 hours
[8] = 12 h, replicate number 2, timepoint 12 hours
[9] = 0 h, replicate number 2, timepoint 0 hours
[10] = 24 h, replicate number 2, timepoint 24 hours
Also: filed as whole numbers so only -1 and 0 and 1 occur.

| Structure (SMILES) | Growth Rate (Fibroblast; [1]) | Growth Rate (Fibroblast; [2]) | Growth Rate (Fibroblast; [3]) | Growth Rate (Fibroblast; [4]) | Growth Rate (Fibroblast; [5]) | Growth Rate (Fibroblast; [6]) | Growth Rate (HEK-293T; [1]) | Growth Rate (HEK-293T; [2]) | Growth Rate (HEK-293T; [7]) | Growth Rate (HEK-293T; [3]) | Growth Rate (HEK-293T; [4]) | Growth Rate (HEK-293T; [5]) | Growth Rate (HEK-293T; [6]) | Growth Rate (U2OS; [1]) | Growth Rate (U2OS; [7]) | Growth Rate (U2OS; [3]) | Growth Rate (U2OS; [8]) | Growth Rate (U2OS; [4]) | Growth Rate (U2OS; [6]) | Growth Rate (Fibroblast; [8]) | other results |
| --- | --- | --- | --- | --- | --- | --- | --- | --- | --- | --- | --- | --- | --- | --- | --- | --- | --- | --- | --- | --- | --- |
| COc1ccc(-c2ccc3cc(C(=O)O)ccc3c2)cc1C12CC3CC(CC(C3)C1)C2 | 1 | 0 | 0 | 0 | 1 | 0 | 0 | 1 | 0 | 0 | 0 | 1 | 0 | 0 | 0 | 1 | 0 | 0 | 0 |  |  |
| Cl.Cl.Cl.c1ccc(N2CCN(Cc3nc4ccccc4[nH]3)CC2)nc1 | 0 |  |  |  | 1 | 1 | 1 | 1 |  | 1 | 1 |  | 0 | 0 | 0 | 1 |  | 1 | 1 | 1 | Growth Rate (HEK-293T; [9]): 0; Growth Rate (HEK-293T; [8]): 0 |
| C[C@H](NC[C@H](O)CP(=O)(O)CC1CCCCC1)c1ccc(Cl)c(Cl)c1.Cl | 0 | 0 | 1 | 0 |  | 0 | 1 | 0 | 1 | 1 | 1 | 0 | 1 | 0 | 0 | 1 | 0 | 1 | 1 |  | Growth Rate (Fibroblast; [10]): 1; Growth Rate (HEK-293T; [9]): 0; Growth Rate (U2OS; [10]): 0 |
| O=C(O)Cn1c(C(=O)Nc2nc(-c3ccccc3Cl)cs2)cc2ccccc21 | 0 | 1 | 0 | 1 | 0 | 0 | 0 | 1 | 0 | 1 | 1 | 0 | 1 |  | 0 | 1 |  | 0 | 1 |  | Growth Rate (Fibroblast; [9]): 1; Growth Rate (Fibroblast; [7]): 0; Growth Rate (HEK-293T; [8]): 0; Growth Rate (HEK-293T; [10]): 0; Growth Rate (U2OS; [9]): 0 |
| O=C(O)CC/C=C\C[C@@H]1CO[C@H](c2ccccc2Cl)O[C@@H]1c1ccccc1O | 0 | 1 | 1 | 1 |  | 1 | 0 | 1 | 0 | 1 | 1 |  | 1 | 0 | 0 | 1 | 0 | 0 | 1 |  | Growth Rate (Fibroblast; [7]): 0; Growth Rate (HEK-293T; [8]): 0; Growth Rate (U2OS; [10]): 0 |
| CCNC(=O)c1cc2c(N3CCOC[C@@H]3C)ccnc2n1C | 0 | 1 | 1 | 1 | 0 | 1 | 1 | 0 |  | 0 | 1 |  | 0 | 0 | 0 | 0 | 1 | 0 | 0 | 0 | Growth Rate (Fibroblast; [7]): 0; Growth Rate (HEK-293T; [9]): 0; Growth Rate (HEK-293T; [10]): 1; Growth Rate (U2OS; [9]): 1; Growth Rate (U2OS; [5]): 1; Growth Rate (U2OS; [10]): 1 |
| C[C@H](N)COC(=O)[C@@H](CCCCN)NC(=O)Cc1c(-c2ccc3ccccc3c2)[nH]c2c1ccc1ccccc12 | 0 | 0 | 1 | 0 |  | 0 | 0 | 1 | 0 | 1 | 1 | 0 | 1 |  | 0 | 1 |  | 1 | 1 | 0 | Growth Rate (HEK-293T; [8]): 0; Growth Rate (HEK-293T; [10]): 0; Growth Rate (U2OS; [9]): 0 |
| O=C(Cc1ccccc1)Nc1nc2ccc(Cl)cc2c2nc(-c3ccco3)nn12 | 0 |  | 0 | 0 | 1 | 0 | 1 | 0 | 1 | 0 | 0 |  | 0 | 0 | 0 | 1 | 0 | 1 | 1 | 1 | Growth Rate (Fibroblast; [9]): 1; Growth Rate (Fibroblast; [7]): 0; Growth Rate (Fibroblast; [10]): 1; Growth Rate (HEK-293T; [9]): 0; Growth Rate (U2OS; [5]): 0; Growth Rate (U2OS; [10]): 0 |
